Experiments:
[1] = Excretion after intravenous administration in rats (ICP-AES); type: in vivo; conditions: i.v., 50 μmol of total gadolinium/kg of body weight, 14 days after administration
Excerpt: After intravenous administration of 50 μmol of total gadolinium/kg of body weight of the gadolinium complexes (I-X) in rats (n=3), the metal content was l determined in fractions up to 14 days after administration by means of atomic emission spectrometry (ICP-AES) in the excretion media of urine and feces, as well as in the body (the rest of the body).

[2] = tested on: iliac lymph nodes and i.m.-implanted VX2 tumors; test: MRT visualization of lymph node metastases and primary tumors in VX2-tumor-carrying rabbits; type: in vivo; conditions: rabbits with VX2 tumors, i.v. 50 μmol of Gd/kg
Experimental: The pictures of FIG. 1 show MR images of iliac lymph nodes precontrast as well as up to 24 hours after intravenous administration of 50 μmol of Gd/kg of body weight of gadolinium complex VIII (title substance of Example 16c) in rabbits with i.m.-implanted VX2 tumors. […] Zones where there was no signal rise within the lymph node were diagnosed as metastases and confirmed histologically (H/E staining of the lymph node sections).
At later times (24 hours p.i.), this enhancement also propagates toward the center of the tumor.

[3] = Plasma kinetics after intravenous administration in rats (ICP-AES); type: in vivo; conditions: i.v., 50 μmol of total gadolinium/kg of body weight
Experimental: After intravenous administration of 50 μmol of total gadolinium/kg of body weight of the gadolinium complexes (I-X) in rats (n=3), blood samples were taken via a catheter in the common carotid artery at different points in time ([…] to 24 hours p.i.), the metal content was determined by means of atomic emission spectrometry (ICP-AES) and converted to plasma values via a conversion factor (0.625). The elimination half-life was calculated by means of special software (WinNonlin) from the plasma concentrations.

arteriosclerotic plaque = test: MRT visualization of arteriosclerotic plaque; type: in vivo, Watanabe rabbits (WHHL rabbits); conditions: WHHL rabbits, i.v. 50 μmol or 100 μmol of Gd/kg, 6 or 24 hours, T1-weighted IR-TFL; not in vascular wall of healthy control animals
Experimental: The pictures of FIG. 2 show MR images of the aorta 6 or 24 hours after intravenous administration of 50 μmol or 100 μmol of Gd/kg of body weight of gadolinium complex I (title substance of Example 1f), gadolinium complex IV (title substance of Example 11e), and gadolinium complex VIII (title substance of Example 16c) in Watanabe rabbits (WHHL rabbits; genetically-induced arteriosclerosis) and in control animals without arteriosclerosis (white New Zealands). […] The localization of the plaque, especially in the aortic arch as well as in the vascular passages, was confirmed by means of Sudan-3 staining. With this test, the suitability of the compounds according to the invention as markers for arteriosclerotic plaque could be shown.

[4] = Relaxivity in water (NMR pulse spectrometer Minispec PC 20); type: physicochemical; conditions: 40° C., 0.47 T
Experimental: The T1 and T2 relaxation times of water and plasma (from cows) with increasing concentrations of the gadolinium complexes (I-XIII) contained therein were determined at 40° C. with use of an NMR pulse spectrometer (Minispec PC 20) at 0.47 T, and the relaxivity was determined.

mice = test: Acute toxicity after one-time intravenous administration in mice; type: in vivo; conditions: one-time i.v., observation period of 7 days, determined preliminarily
Experimental: After intravenous administration of the gadolinium complexes (I-X) in mice (n=3; rate of injection: 2 ml/min), the acute systemic compatibility (LD50) was determined preliminarily. In each case, several dosages with an observation period of 7 days were examined. The acute toxicities that are to be expected can be seen in Table 1.

[5] = tested on: inflammatory muscle lesions and necrotic areas; test: MRT visualization of inflammatory lesions and necrotic areas in rats; type: in vivo; conditions: i.v. 50 μmol of Gd/kg, T1-weighted turbo-spin-echo 1.5 T
Experimental: By way of example, the pictures of FIG. 3 show MR images of inflammatory muscle lesions as well as necrotic areas at different points in time after intravenous administration of 50 μmol of Gd/kg of body weight of gadolinium complex XIV (title substance of Example 4g) in rats. The inflammation/necrosis was induced by intravenous administration of Rose Bengal (20 mg/kg; 24 hours before the administration of contrast medium) and subsequent 20-minute irradiation with a xenon lamp.

[6] = in vivo; cited from earlier work

Compound: CC(C(=O)NCC(=O)N[C@@H](CCCCNC(=O)CO[C@H]1O[C@H](CO)[C@@H](O)[C@H](O)[C@@H]1O)C(=O)N(C)CCC(F)(F)C(F)(F)C(F)(F)C(F)(F)C(F)(F)C(F)(F)C(F)(F)C(F)(F)F)N1CCN(CC(=O)[O-])CCN(CC(=O)[O-])CCN(CC(=O)[O-])CC1.[Gd+3] (stereo partly drawn) [Gadolinium complex VIII, Gadolinium complex of 2-N-[1,4,7-tris-(carboxylatomethyl)-1,4,7,10-tetraazacyclododecane-10-N-(pentanoyl-3-aza-4-oxo-5-methyl-5-yl)]-6-N-(1-O-α-d-carbonylmethylmannopyranose)-L-lysine-[(1H,1H,2H,2H-perfluorodecyl)-methyl]-amide]
- Body Retention 14 days [1]: 0.0%
- MR signal in healthy lymph node tissue ([2]; T1-weighted turbo-spin-echo, 15 to 60 minutes p.i.): strong signal rise
- MR enhancement in the primary tumor ([2]; immediately after administration, especially in the periphery): clear enhancement
- Elimination Half-Life of Blood [3]: 4.3 h
- Gd Content of Blood 24 Hours p.i. ([3]; 24 hours p.i.): 0.5%
- MR signal in the arteriosclerotic plaque (arteriosclerotic plaque): strong signal rise
- Relaxivity R1(w) [4]: R1(w): 20.6 l/(mmol * s)
- LD50 Mouse (mice): ≧10 mmol/kg

Compound: CC(C(=O)NCC(=O)NCCCC[C@H](NC(=O)CO[C@H]1O[C@H](CO)[C@@H](O)[C@H](O)[C@@H]1O)C(=O)NCCCC(F)(F)C(F)(F)C(F)(F)C(F)(F)C(F)(F)C(F)(F)C(F)(C(F)(F)F)C(F)(F)F)N1CCN(CC(=O)[O-])CCN(CC(=O)[O-])CCN(CC(=O)[O-])CC1.[Gd+3] (stereo partly drawn) [Gadolinium complex XIV, Gadolinium complex of 6-N-[1,4,7-tris-(carboxylatomethyl)-1,4,7,10-tetraazacyclododecane-10-N-(pentanoyl-3-aza-4-oxo-5-methyl-5-yl)]-2-N-(1-O-α-d-carbonylmethylmannopyranose)-L-lysine-[(1H,1H,2H,2H-perfluoro-9-methyldecyl)-methyl]-amide]
- MR signal in the central necrosis ([5]; 24 hours p.i.): delayed signal rise
- MR signal in inflammatorily altered tissue ([5]; up to 60 minutes p.i.): strong signal rise

Compound: Mn-TPPS
- LD50 [6]: approximately 0.5 mmol/kg
